# From patent publication US9193720B2, “Pyridin-3-yl acetic acid derivatives as inhibitors of human immunodeficiency virus replication” (priority 2014, dated 2015)
# Test system: NL-RLuc virus
# Test: Inhibition of HIV Replication (NL-RLuc luciferase reporter virus in MT-2 cells)
# Assay type: cell-based
# Conditions: Human immunodeficiency virus 1, MT2, 120 h
# Description: Inhibition of HIV Replication:
# A recombinant NL-RLuc proviral clone was constructed in which a section of the nef gene from NL4-3 was replaced with the Renilla Luciferase gene. This virus is fully infectious and can undergo multiple cycles of replication in cell culture. In addition, the luciferous reporter provides a simple and easy method for quantitating the extent of virus growth and consequently, the antiviral activity of test compounds. The plasmid pNLRLuc contains the proviral NL-Rluc DNA cloned into pUC18 at the PvuII site. The NL-RLuc virus was prepared by transfection of 293T cells with the plasmid pNLRLuc. Transfections were performed using the LipofectAMINE PLUS kit from Invitrogen (Carlsbad, Calif.) according to the manufacturer and the virus generated was titered in MT-2 cells. For susceptibility analyses, the titrated virus was used to infect MT-2 cells in the presence of compound, and after 5 days of incubation, cells were processed and quantitated for virus growth by the amount of expressed luciferase. Assay media was RPMI 1640 supplemented with 10% heat inactivated fetal bovine serum (FBS), 100 units/ml penicillin G/100 units/ml streptomycin, 10 mM HEPES buffer pH 7.55 and 2 mM L-glutamine. The results from at least 2 experiments were used to calculate the EC50 values. Luciferase was quantitated using the Dual Luciferase kit from Promega (Madison, Wis.). Susceptibility of viruses to compounds was determined by incubation in the presence of serial dilutions of the compound. The 50% effective concentration (EC50) was calculated by using the exponential form of the median effect equation where (Fa)=1/[1+(ED50/drug conc.)^m] (Johnson V A, Byington R T. Infectivity Assay. In Techniques in HIV Research. ed. Aldovini A, Walker B D. 71-76. New York: Stockton Press. 1990).
row,Structure (SMILES),EC50 [nM]
1,"Cc1nc(C)c([C@H](OC(C)(C)C)C(=O)O)c(N2CCC(C)(C)CC2)c1-c1ccc(OC(C)Cc2ccc(F)cc2)cc1 (single isomer, unassigned) [Example 21]",14
2,"Cc1nc(C)c([C@H](OC(C)(C)C)C(=O)O)c(N2CCC(C)(C)CC2)c1-c1ccc(Oc2ccccc2)cc1 [Example 1, (S)-2-(tert-butoxy)-2-(4-(4,4-dimethylpiperidin-1-yl)-2,6-dimethyl-5-(4-phenoxyphenyl)pyridin-3-yl)acetic acid]",37
3,"Cc1nc(C)c([C@H](OC(C)(C)C)C(=O)O)c(N2CCC(C)(C)CC2)c1-c1ccc(OCc2ccc(F)cc2)cc1 [Example 2, (S)-2-(tert-butoxy)-2-(4-(4,4-dimethylpiperidin-1-yl)-5-(4-((4-fluorobenzyl)oxy)phenyl)-2,6-dimethylpyridin-3-yl)acetic acid]",12
4,"Cc1nc(C)c([C@H](OC(C)(C)C)C(=O)O)c(N2CCC(C)(C)CC2)c1-c1ccc(OCc2ccccc2)nc1 [Example 3, (S)-2-(6′-(benzyloxy)-4-(4,4-dimethylpiperidin-1-yl)-2,6-dimethyl-[3,3′-bipyridin]-5-yl)-2-(tert-butoxy)acetic acid]",20
5,"Cc1nc(C)c([C@H](OC(C)(C)C)C(=O)O)c(N2CCC(C)(C)CC2)c1-c1ccc(OCc2ccccc2)c(F)c1 [Example 4, (S)-2-(5-(4-(benzyloxy)-3-fluorophenyl)-4-(4,4-dimethylpiperidin-1-yl)-2,6-dimethylpyridin-3-yl)-2-(tert-butoxy)acetic acid]",12
6,"Cc1nc(C)c([C@H](OC(C)(C)C)C(=O)O)c(N2CCC(C)(C)CC2)c1-c1ccc(OCc2ccccc2)cc1 [Example 5, (S)-2-(5-(4-(benzyloxy)phenyl)-4-(4,4-dimethylpiperidin-1-yl)-2,6-dimethylpyridin-3-yl)-2-(tert-butoxy)acetic acid]",11
7,"COc1ccccc1COc1ccc(-c2c(C)nc(C)c([C@H](OC(C)(C)C)C(=O)O)c2N2CCC(C)(C)CC2)cc1 [Example 6, (S)-2-(tert-butoxy)-2-(4-(4,4-dimethylpiperidin-1-yl)-5-(4-((2-methoxybenzyl)oxy)phenyl)-2,6-dimethylpyridin-3-yl)acetic acid]",20
8,"Cc1nc(C)c([C@H](OC(C)(C)C)C(=O)O)c(N2CCC(C)(C)CC2)c1-c1ccc(OCc2cccc(F)c2)cc1 [Example 7, (S)-2-(tert-butoxy)-2-(4-(4,4-dimethylpiperidin-1-yl)-5-(4-((3-fluorobenzyl)oxy)phenyl)-2,6-dimethylpyridin-3-yl)acetic acid]",9
9,"COc1ccc(COc2ccc(-c3c(C)nc(C)c([C@H](OC(C)(C)C)C(=O)O)c3N3CCC(C)(C)CC3)cc2)cc1 [Example 8, (S)-2-(tert-butoxy)-2-(4-(4,4-dimethylpiperidin-1-yl)-5-(4-((4-methoxybenzyl)oxy)phenyl)-2,6-dimethylpyridin-3-yl)acetic acid]",11
10,"Cc1nc(C)c([C@H](OC(C)(C)C)C(=O)O)c(N2CCC(C)(C)CC2)c1-c1ccc(OCc2ccc(Cl)cc2)cc1 [Example 9, (S)-2-(tert-butoxy)-2-(5-(4-((4-chlorobenzyl)oxy)phenyl)-4-(4,4-dimethylpiperidin-1-yl)-2,6-dimethylpyridin-3-yl)acetic acid]",9
11,"CCOc1ccc(-c2c(C)nc(C)c([C@H](OC(C)(C)C)C(=O)O)c2N2CCC(C)(C)CC2)cc1 [Example 10, (S)-2-(tert-butoxy)-2-(4-(4,4-dimethylpiperidin-1-yl)-5-(4-ethoxyphenyl)-2,6-dimethylpyridin-3-yl)acetic acid]",27
12,"Cc1nc(C)c([C@H](OC(C)(C)C)C(=O)O)c(N2CCC(C)(C)CC2)c1-c1ccc(OCCc2ccc(F)cc2)cc1 [Example 11, (S)-2-(tert-butoxy)-2-(4-(4,4-dimethylpiperidin-1-yl)-5-(4-(4-fluorophenethoxy)phenyl)-2,6-dimethylpyridin-3-yl)acetic acid]",4
13,"Cc1cc(CCOc2ccc(-c3c(C)nc(C)c([C@H](OC(C)(C)C)C(=O)O)c3N3CCC(C)(C)CC3)cc2)ccc1F [Example 12, (S)-2-(tert-butoxy)-2-(4-(4,4-dimethylpiperidin-1-yl)-5-(4-(4-fluoro-3-methylphenethoxy)phenyl)-2,6-dimethylpyridin-3-yl)acetic acid]",5
14,"Cc1nc(C)c([C@H](OC(C)(C)C)C(=O)O)c(N2CCC(C)(C)CC2)c1-c1ccc(OCCCc2ccc(F)cc2)cc1 [Example 13, (S)-2-(tert-butoxy)-2-(4-(4,4-dimethylpiperidin-1-yl)-5-(4-(3-(4-fluorophenyl)propoxy)phenyl)-2,6-dimethylpyridin-3-yl)acetic acid]",12
15,"Cc1nc(C)c([C@H](OC(C)(C)C)C(=O)O)c(N2CCC(C)(C)CC2)c1-c1ccc(OCCC(C)(C)C)cc1 [Example 14, (S)-2-(tert-butoxy)-2-(5-(4-(3,3-dimethylbutoxy)phenyl)-4-(4,4-dimethylpiperidin-1-yl)-2,6-dimethylpyridin-3-yl)acetic acid]",28
16,"COc1ccc(CCOc2ccc(-c3c(C)nc(C)c([C@H](OC(C)(C)C)C(=O)O)c3N3CCC(C)(C)CC3)cc2)cc1 [Example 15, (S)-2-(tert-butoxy)-2-(4-(4,4-dimethylpiperidin-1-yl)-5-(4-(4-methoxyphenethoxy)phenyl)-2,6-dimethylpyridin-3-yl)acetic acid]",4
17,"Cc1nc(C)c([C@H](OC(C)(C)C)C(=O)O)c(N2CCC(C)(C)CC2)c1-c1ccc(O)cc1 [Example 16, (S)-2-(tert-Butoxy)-2-(4-(4,4-dimethylpiperidin-1-yl)-5-(4-hydroxyphenyl)-2,6-dimethylpyridin-3-yl)acetic acid]",172
18,"Cc1nc(C)c([C@H](OC(C)(C)C)C(=O)O)c(N2CCC(C)(C)CC2)c1-c1ccc(OCCc2ccc(C(N)=O)cc2)cc1 [Example 17, (S)-2-(tert-Butoxy)-2-(5-(4-(4-carbamoylphenethoxy)phenyl)-4-(4,4-dimethylpiperidin-1-yl)-2,6-dimethylpyridin-3-yl)acetic acid]",4
19,"Cc1nc(C)c([C@H](OC(C)(C)C)C(=O)O)c(N2CCC(C)(C)CC2)c1-c1ccc(OCCc2ccc(C#N)cc2)cc1 [Example 18, (S)-2-(tert-Butoxy)-2-(5-(4-(4-cyanophenethoxy)phenyl)-4-(4,4-dimethylpiperidin-1-yl)-2,6-dimethylpyridin-3-yl)acetic acid]",2
20,"Cc1nc(C)c([C@H](OC(C)(C)C)C(=O)O)c(N2CCC(C)(C)CC2)c1-c1ccc(OCc2ccc(C(N)=O)cc2)cc1 [Example 19, (S)-2-(tert-Butoxy)-2-(5-(4-((4-carbamoylbenzyl)oxy)phenyl)-4-(4,4-dimethylpiperidin-1-yl)-2,6-dimethylpyridin-3-yl)acetic acid]",12
21,"Cc1nc(C)c([C@H](OC(C)(C)C)C(=O)O)c(N2CCC(C)(C)CC2)c1-c1ccc(OCc2ccc(C#N)cc2)cc1 [Example 20, (S)-2-(tert-Butoxy)-2-(5-(4-((4-cyanobenzyl)oxy)phenyl)-4-(4,4-dimethylpiperidin-1-yl)-2,6-dimethylpyridin-3-yl)acetic acid]",3
